Like-named read-outs stand apart in the source and are kept apart here.
Assays:
[1] = drug-related adverse events, safety population, trials A and B
cold-induced pain = assay: cold pressor test (cold-induced pain), trials A and B; assay type: in vivo, human
[2] = human, in vivo, cited from earlier work
[3] = respiration and other vital signs, trials A and B; settings: trial A
pupil diameter = assay: pupillometry, trial A; assay type: in vivo, human; settings: after dosing
[4] = single dose 100 mg racemic tramadol, cited from earlier work
[5] = steady-state pharmacokinetics, 50 mg tramadol vs 20 mg desmetramadol every 6 hours, nine doses, trials A and B (B with paroxetine); settings: after tramadol dosing, with vs without paroxetine
[6] = trial A (n = 43, males), 0-10 VAS
[7] = trial B (n = 18, females), with paroxetine
[8] = trial B (n = 18, females), with paroxetine, 0-10 VAS
[9] = trial B (n = 42, males), with paroxetine
[10] = trial B (n = 42, males), with paroxetine, 0-10 VAS

COc1cccc(C2(O)CCCCC2CN(C)C)c1 (racemic) [tramadol]
Deaths ([1]; trial A): 0 (0) N (%)
Severe AEs ([1]; trial A): 0 (0) N (%)
subjects reporting drug-related AEs ([1]; trial A): 49%
All AEs ([1]; trial A (N = 43)): 20 (49) N (%)
Dizziness ([1]; trial A, all subjects): 5 (12) N (%)
Euphoria ([1]; trial A, all subjects): 0 (0) N (%)
Feel abnormal ([1]; trial A, all subjects): 1 (2) N (%)
Feel hot ([1]; trial A, all subjects): 0 (0) N (%)
Headache ([1]; trial A, all subjects): 7 (17) N (%)
Nausea ([1]; trial A, all subjects): 5 (12) N (%)
Presyncope ([1]; trial A, all subjects): 0 (0) N (%)
Pruritus ([1]; trial A, all subjects): 4 (10) N (%)
Somnolence ([1]; trial A, all subjects): 2 (5) N (%)
Spasticity ([1]; trial A, all subjects): 1 (2) N (%)
Sweating ([1]; trial A, all subjects): 0 (0) N (%)
Vomiting ([1]; trial A, all subjects): 1 (2) N (%)
Dizziness ([1]; trial A, male): 5 (12) N (%)
Euphoria ([1]; trial A, male): 0 (0) N (%)
Feel abnormal ([1]; trial A, male): 1 (2) N (%)
Feel hot ([1]; trial A, male): 0 (0) N (%)
Headache ([1]; trial A, male): 7 (17) N (%)
Nausea ([1]; trial A, male): 5 (12) N (%)
Presyncope ([1]; trial A, male): 0 (0) N (%)
Pruritus ([1]; trial A, male): 4 (10) N (%)
Somnolence ([1]; trial A, male): 2 (5) N (%)
Spasticity ([1]; trial A, male): 1 (2) N (%)
Sweating ([1]; trial A, male): 0 (0) N (%)
Vomiting ([1]; trial A, male): 1 (2) N (%)
Deaths ([1]; trial B): 0 (0) N (%)
Severe AEs ([1]; trial B): 0 (0) N (%)
All AEs ([1]; trial B (N = 60), with paroxetine): 30 (50) N (%)
Dizziness ([1]; trial B, all subjects): 8 (13) N (%)
Euphoria ([1]; trial B, all subjects): 1 (2) N (%)
Feel abnormal ([1]; trial B, all subjects): 2 (3) N (%)
Feel hot ([1]; trial B, all subjects): 0 (0) N (%)
Headache ([1]; trial B, all subjects): 6 (10) N (%)
Nausea ([1]; trial B, all subjects): 8 (13) N (%)
Presyncope ([1]; trial B, all subjects): 1 (2) N (%)
Pruritus ([1]; trial B, all subjects): 1 (2) N (%)
Somnolence ([1]; trial B, all subjects): 4 (7) N (%)
Spasticity ([1]; trial B, all subjects): 3 (5) N (%)
Sweating ([1]; trial B, all subjects): 1 (2) N (%)
Vomiting ([1]; trial B, all subjects): 2 (3) N (%)
Dizziness ([1]; trial B, female): 4 (22) N (%)
Euphoria ([1]; trial B, female): 0 (0) N (%)
Feel abnormal ([1]; trial B, female): 0 (0) N (%)
Feel hot ([1]; trial B, female): 0 (0) N (%)
Headache ([1]; trial B, female): 6 (33) N (%)
Nausea ([1]; trial B, female): 2 (11) N (%)
Presyncope ([1]; trial B, female): 0 (0) N (%)
Pruritus ([1]; trial B, female): 1 (6) N (%)
Somnolence ([1]; trial B, female): 2 (11) N (%)
Spasticity ([1]; trial B, female): 0 (0) N (%)
Sweating ([1]; trial B, female): 0 (0) N (%)
Vomiting ([1]; trial B, female): 0 (0) N (%)
Dizziness ([1]; trial B, male): 4 (10) N (%)
Euphoria ([1]; trial B, male): 1 (2) N (%)
Feel abnormal ([1]; trial B, male): 2 (5) N (%)
Feel hot ([1]; trial B, male): 0 (0) N (%)
Headache ([1]; trial B, male): 0 (0) N (%)
Nausea ([1]; trial B, male): 6 (14) N (%)
Presyncope ([1]; trial B, male): 1 (2) N (%)
Pruritus ([1]; trial B, male): 0 (0) N (%)
Somnolence ([1]; trial B, male): 2 (5) N (%)
Spasticity ([1]; trial B, male): 3 (7) N (%)
Sweating ([1]; trial B, male): 1 (2) N (%)
Vomiting ([1]; trial B, male): 2 (5) N (%)
headache, tramadol AE profile compared to the desmetramadol AE profile ([1]; trial B, same subjects): −40%
nausea, tramadol AE profile compared to the desmetramadol AE profile ([1]; trial B, same subjects): −50%
presyncope, tramadol AE profile compared to the desmetramadol AE profile ([1]; trial B, same subjects): −83%
pruritus, tramadol AE profile compared to the desmetramadol AE profile ([1]; trial B, same subjects): −75%
somnolence, tramadol AE profile compared to the desmetramadol AE profile ([1]; trial B, same subjects): −60%
vomiting, tramadol AE profile compared to the desmetramadol AE profile ([1]; trial B, same subjects): −78%
subjects reporting drug-related AEs ([1]; trial B, with paroxetine): 50%
average duration of tolerance to pain (cold-induced pain; trial A): 62 s
Time to first pain, mean difference versus placebo (cold-induced pain; trial A (n = 43, males)): 2.1 s
Time to withdrawal, mean difference versus placebo (cold-induced pain; trial A (n = 43, males)): 12.4 (4.4) seconds
Pain intensity at 30 seconds, MPD versus placebo (cold-induced pain; [6]): −0.46
Pain intensity at first perception, MPD versus placebo (cold-induced pain; [6]): −0.21
Time to withdrawal, mean difference versus placebo (cold-induced pain; trial A (n = 43, males), listed as TRAMADOL): 12.4 s
Average (SD) subject-reported pain scores at 30 seconds (cold-induced pain; trial A, 0-10 VAS): 6.0 (1.7)
Time to first pain, MPD versus placebo (cold-induced pain; [7]): 2.6 s
Time to withdrawal, MPD versus placebo (cold-induced pain; [7]): 7.5 s
Pain intensity at 30 seconds, MPD versus placebo (cold-induced pain; [8]): 0.03
Pain intensity at first perception, MPD versus placebo (cold-induced pain; [8]): 0.01
Time to first pain, MPD versus placebo (cold-induced pain; [9]): 1.5 s
Time to withdrawal, MPD versus placebo (cold-induced pain; [9]): 6.9 (1.6) seconds
Pain intensity at 30 seconds, MPD versus placebo (cold-induced pain; [10]): failed to statistically differentiate from placebo
Pain intensity at first perception, MPD versus placebo (cold-induced pain; [10]): −0.08
Pain intensity at 30 seconds, MPD versus placebo (cold-induced pain; trial B (n = 42, males), with paroxetine, 0-10 VAS, listed as TRAMADOL): −0.25
Time to withdrawal, MPD versus placebo (cold-induced pain; trial B (n = 42, males), with paroxetine, listed as TRAMADOL): 6.9 s
lethal dose [2]: > 5 grams
pre-dose versus post-dose effect on respiratory rate compared to placebo or each other [3]: no discernable pre-dose versus post-dose effect
pupil diameter, mean paired reduction [SD] compared to placebo (pupil diameter): −0.7 (0.6) millimeters
subjects experiencing nausea ([4]; EM group (11 EMs)): 9%
subjects experiencing nausea ([4]; UM group (11 UMs)): ~50%

COc1cccc(C2(O)CCCCC2CN(C)C)c1 (single isomer, unassigned; (-)) [(−)-tramadol, 1S,2S-tramadol, reference compound]
levels in trial B as % of levels in trial A [5]: 200%

COc1cccc([C@@]2(O)CCCC[C@@H]2CN(C)C)c1 [(+)-tramadol, 1R,2R-tramadol, reference compound]
levels in trial B as % of levels in trial A [5]: 200%

COc1ccc2c3c1O[C@H]1C(=O)CC[C@H]4[C@@H](C2)N(C)CC[C@]314 [hydrocodone]
lethal oral dose [2]: 90 mg

COc1ccc2c3c1O[C@H]1C(=O)CC[C@@]4(O)[C@@H](C2)N(C)CC[C@]314 [oxycodone]
lethal oral dose [2]: 40 mg

Reference: patent publication US11000488B2 (priority 2019, dated 2021)
